Legend:
Pseudomonas aeruginosa [1] = assay: Inhibition of LasR-dependent quorum sensing activity in Pseudomonas aeruginosa MH602 harboring GFP-fused […] LasB promoter assessed as inhibition of 3-oxo-dodecanoyl HSL-induced GFP expression at 2 mM measured after 8 hrs by fluorescence assay relative to control
Pseudomonas aeruginosa [2] = assay: Inhibition of LasR-dependent quorum sensing activity in Pseudomonas aeruginosa MH602 harboring GFP-fused […] LasB promoter assessed as inhibition of 3-oxo-dodecanoyl HSL-induced GFP expression at 2 mM measured after 24 hrs by fluorescence assay relative to control
Pseudomonas aeruginosa [3] = assay: Inhibition of LasR-dependent quorum sensing activity in Pseudomonas aeruginosa MH602 harboring GFP-fused […] LasB promoter assessed as inhibition of 3-oxo-dodecanoyl HSL-induced GFP expression at 1 mM measured after 8 hrs by fluorescence assay relative to control
Pseudomonas aeruginosa [4] = assay: Inhibition of LasR-dependent quorum sensing activity in Pseudomonas aeruginosa MH602 harboring GFP-fused […] LasB promoter assessed as inhibition of 3-oxo-dodecanoyl HSL-induced GFP expression at 500 uM measured after 8 hrs by fluorescence assay relative to control
Pseudomonas aeruginosa [5] = assay: Inhibition of LasR-dependent quorum sensing activity in Pseudomonas aeruginosa MH602 harboring GFP-fused […] LasB promoter assessed as inhibition of 3-oxo-dodecanoyl HSL-induced GFP expression at 500 uM measured after 24 hrs by fluorescence assay relative to control
Escherichia coli [6] = assay: Inhibition of LuxR-dependent quorum sensing activity in Escherichia coli MT102 harboring pJBA132 assessed as inhibition of OHHL-induced GFP expression at 2 mM measured after 8 hrs by fluorescence assay relative to control
Escherichia coli [7] = assay: Inhibition of LuxR-dependent quorum sensing activity in Escherichia coli MT102 harboring pJBA132 assessed as inhibition of OHHL-induced GFP expression at 2 mM measured after 24 hrs by fluorescence assay relative to control
Escherichia coli [8] = assay: Inhibition of LuxR-dependent quorum sensing activity in Escherichia coli MT102 harboring pJBA132 assessed as inhibition of OHHL-induced GFP expression at 1 mM measured after 8 hrs by fluorescence assay relative to control
Escherichia coli [9] = assay: Inhibition of LuxR-dependent quorum sensing activity in Escherichia coli MT102 harboring pJBA132 assessed as inhibition of OHHL-induced GFP expression at 1 mM measured after 24 hrs by fluorescence assay relative to control
Escherichia coli [10] = assay: Inhibition of LuxR-dependent quorum sensing activity in Escherichia coli MT102 harboring pJBA132 assessed as inhibition of OHHL-induced GFP expression at 500 uM measured after 8 hrs by fluorescence assay relative to control
Escherichia coli [11] = assay: Inhibition of LuxR-dependent quorum sensing activity in Escherichia coli MT102 harboring pJBA132 assessed as inhibition of OHHL-induced GFP expression at 500 uM measured after 24 hrs by fluorescence assay relative to control
Pseudomonas aeruginosa [12] = assay: Growth inhibition of Pseudomonas aeruginosa MH602 at 2 mM after 8 hrs relative to control; settings: MH602, 8 h, read-out: GI
Pseudomonas aeruginosa [13] = assay: Growth inhibition of Pseudomonas aeruginosa MH602 at 2 mM after 24 hrs relative to control; settings: MH602, 24 h, read-out: GI
Pseudomonas aeruginosa [14] = assay: Growth inhibition of Pseudomonas aeruginosa MH602 at 1 mM after 8 hrs relative to control; settings: MH602, 8 h, read-out: GI
Pseudomonas aeruginosa [15] = assay: Growth inhibition of Pseudomonas aeruginosa MH602 at 1 mM after 24 hrs relative to control; settings: MH602, 24 h, read-out: GI
Pseudomonas aeruginosa [16] = assay: Growth inhibition of Pseudomonas aeruginosa MH602 at 500 uM after 8 hrs relative to control; settings: MH602, 8 h, read-out: GI
Pseudomonas aeruginosa [17] = assay: Growth inhibition of Pseudomonas aeruginosa MH602 at 500 uM after 24 hrs relative to control; settings: MH602, 24 h, read-out: GI
Escherichia coli [18] = assay: Growth inhibition of Escherichia coli MT102 at 2 mM after 8 hrs relative to control; settings: MT102, 8 h, read-out: GI
Escherichia coli [19] = assay: Growth inhibition of Escherichia coli MT102 at 2 mM after 24 hrs relative to control; settings: MT102, 24 h, read-out: GI
Escherichia coli [20] = assay: Growth inhibition of Escherichia coli MT102 at 1 mM after 8 hrs relative to control; settings: MT102, 8 h, read-out: GI
Escherichia coli [21] = assay: Growth inhibition of Escherichia coli MT102 at 1 mM after 24 hrs relative to control; settings: MT102, 24 h, read-out: GI
Escherichia coli [22] = assay: Growth inhibition of Escherichia coli MT102 at 500 uM after 8 hrs relative to control; settings: MT102, 8 h, read-out: GI
Escherichia coli [23] = assay: Growth inhibition of Escherichia coli MT102 at 500 uM after 24 hrs relative to control; settings: MT102, 24 h, read-out: GI
[24] = tested on: Pseudomonas aeruginosa PA14; assay: Inhibition of quorum sensing-regulated pyocyanin production in Pseudomonas aeruginosa PA14 at 2 mM after 24 hrs relative to control
Pseudomonas aeruginosa [25] = assay: Growth inhibition of Pseudomonas aeruginosa PA14 at 2 mM after 24 hrs relative to control; settings: 2000 µM
[26] = tested on: Pseudomonas aeruginosa PA14; assay: Inhibition of quorum sensing-regulated biofilm formation in Pseudomonas aeruginosa PA14 at 2 mM after overnight incubation by crystal violet staining based assay relative to control
Pseudomonas aeruginosa [27] = assay: Inhibition of LasR-dependent quorum sensing activity in Pseudomonas aeruginosa MH602 harboring GFP-fused […] LasB promoter assessed as inhibition of 3-oxo-dodecanoyl HSL-induced GFP expression at 1 mM measured after 24 hrs by fluorescence assay relative to control

SMILES	inhibition (Pseudomonas aeruginosa [1])	inhibition (Pseudomonas aeruginosa [2])	inhibition (Pseudomonas aeruginosa [3])	inhibition (Pseudomonas aeruginosa [4])	inhibition (Escherichia coli [7])	inhibition (Escherichia coli [9])	inhibition (Escherichia coli [10])	inhibition at 2000 µM (Pseudomonas aeruginosa [12])	inhibition at 2000 µM (Pseudomonas aeruginosa [13])	inhibition at 1000 µM (Pseudomonas aeruginosa [14])	inhibition at 1000 µM (Pseudomonas aeruginosa [15])	inhibition at 500 µM (Pseudomonas aeruginosa [16])	inhibition at 500 µM (Pseudomonas aeruginosa [17])	inhibition at 2000 µM (Escherichia coli [18])	inhibition at 2000 µM (Escherichia coli [19])	inhibition at 1000 µM (Escherichia coli [20])	inhibition at 1000 µM (Escherichia coli [21])	inhibition at 500 µM (Escherichia coli [22])	inhibition at 500 µM (Escherichia coli [23])	growth inhibition (GI) (Pseudomonas aeruginosa [25])	other results
CCCC(=O)N[C@H]1[C@H](OC(C)=O)O[C@H](COC(C)=O)[C@@H](OC(C)=O)[C@@H]1OC(C)=O	10.8%	22.2%	11%	3.6%	23.4%	4.4%	10.1%	0%	0%	0.9%	0%	3.4%	0%	0%	0%	0%	5%	9.4%	3%	Non-Toxic	inhibition (Pseudomonas aeruginosa [5]): 2.5%; inhibition (Escherichia coli [6]): 6.1%; inhibition (Escherichia coli [8]): 21.9%; inhibition (Escherichia coli [11]): 2.1%; inhibition [24]: 1.5%; inhibition [26]: 7.8%
COc1ccc(CC(=O)N[C@H]2[C@H](OC(C)=O)O[C@H](COC(C)=O)[C@@H](OC(C)=O)[C@@H]2OC(C)=O)cc1	0.9%	18.6%	9.6%	4.2%	25.4%	28.7%	6.6%	0%	0%	0%	0%	0%	3.9%	0%	0%	0%	0%	0%	4.5%	Non-Toxic	inhibition (Pseudomonas aeruginosa [27]): 19.4%; inhibition (Pseudomonas aeruginosa [5]): 17.8%; inhibition [24]: 0.4%; inhibition [26]: 5.6%
COc1ccc(CC(=O)N[C@@H]2[C@@H](O)[C@H](O)[C@@H](CO)O[C@H]2O)cc1	0.8%	3%	7.5%	3.2%	2.6%	20.2%	6.7%	0%	0%	0%	3.3%	0%	2.9%	0%	3%	0%	0%	0%	0%	Non-Toxic	inhibition (Escherichia coli [6]): 3.5%; inhibition (Escherichia coli [8]): 10.1%; inhibition (Escherichia coli [11]): 16%; inhibition [26]: 16.6%
CC(=O)N[C@@H]1[C@@H](O)[C@H](O)[C@@H](CO)O[C@H]1O [N-ACETYLGLUCOSAMINE]	81.3%		29.6%	16.3%	96.1%	69.3%	36.2%	12.5%	0%	0%	0%	0%	2.7%	0%	10.3%	7.8%	0%	6.1%	14.7%	Non-Toxic	inhibition (Pseudomonas aeruginosa [5]): 13.6%; inhibition (Escherichia coli [6]): 86.5%; inhibition (Escherichia coli [8]): 85%; inhibition (Escherichia coli [11]): 18.8%
O=C(CCCc1ccccc1)N[C@@H]1[C@@H](O)[C@H](O)[C@@H](CO)O[C@H]1O	38.9%	17.4%	9.9%	5.6%	85%	46.7%	8.7%	15.8%	0%	2.1%	2%	2.6%	0%	21.2%	2.7%	0%	8.8%	17.9%	7.7%	Non-Toxic	inhibition (Escherichia coli [6]): 76.2%; inhibition (Escherichia coli [8]): 43.4%; inhibition (Escherichia coli [11]): 4.3%; inhibition [26]: 4.8%
CCCC(=O)N[C@@H]1[C@@H](O)[C@H](O)[C@@H](CO)O[C@H]1O	79.1%	13.4%	22.5%	13.5%	97.5%	93.5%	51.7%	29.8%	4.4%	0%	0%	8.9%	5.9%	83.6%	10.7%	34.5%	13.9%	37.9%	13.5%	Non-Toxic	inhibition (Pseudomonas aeruginosa [5]): 10.7%; inhibition (Escherichia coli [6]): 98.4%; inhibition (Escherichia coli [8]): 92.7%; inhibition (Escherichia coli [11]): 46.5%; inhibition [24]: 10.6%; inhibition [26]: 22.4%

— ChEMBL document CHEMBL3875216, “Synthesis of antimicrobial glucosamides as bacterial quorum sensing mechanism inhibitors” (Bioorg Med Chem, 2017)
